From patent US6767522B1, “Method for leaching sulfide-containing materials with microorganisms and use of sulphur-containing amino acids in leaching with microorganisms” (Hahn-Meitner-Institut Berlin GmbH, priority 1998, dated 2004)

System: Thiobacillus ferrooxidans
Test: Bacterial dissolution of pyrite layers with Thiobacillus ferrooxidans in the presence of cysteine
Details: for lag phase of bacterial pyrite dissolution: pH 1.6; for pyrite corrosion level (or dissolution rate): pH 1.6, S^o-FeS2 pyrite layer 100 nm, after 10-11 days
Experimental: Each time, 1 cm^3 of pyrite layers 100 nm in thickness (referred to as S^o-FeS2), prepared according to Example 1 using elemental sulfur as precursor, was added with 300 μl of aqueous solutions or suspensions of Thiobacillus ferrooxidans cells and cysteine at concentrations of from 8×10^−2 to 8×10^−5 M in an in situ pyrite culture chamber. The pH value of the solutions was adjusted to 1.6 using Tuovinen buffer (for 1 liter: KH2PO4=0.4 g, MgSO4.7H2O=0.4 g, (NH4)2SO4=0.4 g, […], with no iron(II) being added) [cf., Tuovinen and Kelly, Arch. Mikrobiol. 88, 285-298 (1973)].
FIG. 1 is a plot of the pyrite corrosion level (or dissolution rate) [%] as a function of time [days] for the various solutions.

N[C@@H](CS)C(=O)O [cysteine]
lag phase of bacterial pyrite dissolution (8×10^−4 M cysteine in solution): no longer occurs | pyrite corrosion level (or dissolution rate) (8×10^−4 M cysteine in solution): 100% | lag phase of bacterial pyrite dissolution (8×10^−5 M cysteine in solution): no longer occurs | pyrite corrosion level (or dissolution rate) (8×10^−5 M cysteine in solution): 100%
